Test results taken from patent publication US10689318B2, “Bisphenol having fluorene skeleton, method for producing same, polyarylate resin, (meth)acrylate compound and epoxy resin which are derived from the bisphenol” (TAOKA CHEMICAL CO., LTD., priority 2016, dated 2020).

Assays:
Format in all cases: physicochemical
[1] = Refractive index and Abbe number (Abbe refractometer, NMP solutions extrapolated to 100% by weight); details: 20° C.; for Refractive index: 589 nm; for Abbe number: calculated from extrapolated refractive indices at 486, 589, 656 nm
Method: [5] Refractive Index and Abbe Number
The refractive index of each of the bisphenol, the polyarylate resin, the (meth)acrylate compound and the epoxy resin is a value determined using the following method and conditions. In addition, the Abbe number of each of the (meth)acrylate compound and the epoxy resin was calculated on the basis of the refractive index measured using the following method and conditions. • Apparatus: Abbe refractometer (“multiwavelength Abbe refractometer DR-2M” manufactured by ATAGO CO., LTD.) • Measurement wavelength: 589 nm (refractive index), 486, 589, 656 nm (Abbe number) • Measurement temperature: 20° C. • Refractive index of bisphenol: The bisphenol was dissolved in N-methyl-2-pyrrolidone (hereinafter, sometimes referred to as NMP) to prepare 5 wt %, 10 wt % and 15 wt % solutions, and the refractive index was measured for each of the solutions using the above-mentioned apparatus and conditions. Next, an approximate curve was derived from the obtained three measured values, and a value obtained by extrapolating the curve at 100% by weight was defined as a refractive index of each bisphenol. • Refractive index of polyarylate resin: A polyarylate resin powder was dissolved in NMP to prepare 1 wt %, 3 wt % and 5 wt % solutions, and the refractive index was measured for each of the solutions using the above-mentioned apparatus and conditions. Next, an approximate curve was derived from the obtained three measured values, and a value obtained by extrapolating the curve at 100% by weight was defined as a refractive index of each polyarylate resin. • Refractive index and Abbe number of (meth)acrylate compound: Each (meth)acrylate compound was dissolved in NMP to prepare a 5 wt %, 10 wt % and 15 wt % solutions (for Comparative Examples 4 and 5, 1 wt %, 3 wt % and 5 wt % solutions were prepared because the (meth)acrylate compound was hardly soluble in an organic solvent), and the refractive index at each wavelength was measured for each of the solutions using the above-mentioned apparatus and conditions. Next, an approximate curve was derived from the obtained three measured values, a value obtained by extrapolating the curve at 100% by weight was defined as a refractive index of each (meth)acrylate compound at each wavelength, and the Abbe number was calculated on the basis of the refractive index at each wavelength, which was determined as described above. • Refractive index and Abbe number of epoxy resin: Each epoxy resin was dissolved in NMP to prepare 5 wt %, 10 wt % and 15 wt % solutions, and the refractive index at each wavelength was measured for each of the solutions using the above-mentioned apparatus and conditions. Next, an approximate curve was derived from the obtained three measured values, a value obtained by extrapolating the curve at 100% by weight was defined as a refractive index of each epoxy resin at each wavelength, and the Abbe number was calculated on the basis of the refractive index at each wavelength, which was determined as described above.

[2] = 5% weight loss temperature (thermogravimetric instrument); details: bisphenol; 10° C./min from room temperature to 500° C., nitrogen gas stream
Method: [6] 5% Weight Loss Temperature
Using a thermogravimetric instrument (TGA-50 from Shimadzu Corporation), measurement was performed with the temperature elevated at a rate of 10° C./min from room temperature to 500° C. under a nitrogen gas stream.

[3] = Solubility test of (meth)acrylate compound; design: key: ◯: The sample is dissolved at room temperature.; Δ: The sample is dissolved when heated, and crystals are not precipitated even when the sample is cooled.; x: The sample is dissolved when heated, but crystals are precipitated when the sample is cooled, or the sample is not dissolved even when heated; details: for Solubility (30 mass % concentration) Monofunctional acrylate OPPEA: 30 parts by weight acrylate + 70 parts 2-phenylphenoxyethyl acrylate; for Solubility (30 mass % concentration) Solvent EA: 30 parts by weight acrylate + 70 parts ethyl acetate; for Solubility (30 mass % concentration) Monofunctional acrylate POB-A: 30 parts by weight acrylate + 70 parts m-phenoxybenzyl acrylate; for Solubility (30 mass % concentration) Solvent MEK: 30 parts by weight acrylate + 70 parts methyl ethyl ketone; for Solubility (30 mass % concentration) Solvent PGME: 30 parts by weight acrylate + 70 parts propylene glycol monomethyl ether; for Solubility (30 mass % concentration) Solvent PGMEA: 30 parts by weight acrylate + 70 parts propylene glycol monomethyl ether acetate
Method: (9-2) Solubility Test of (Meth)Acrylate Compound
30 parts by weight of the (meth)acrylate compound and 70 parts by weight of each of the diluents (solvent or monofunctional acrylate) shown in Table 3 were mixed, and solubility was evaluated on the basis of the following evaluation criteria.
◯: The sample is dissolved at room temperature.
Δ: The sample is dissolved when heated, and crystals are not precipitated even when the sample is cooled.
x: The sample is dissolved when heated, but crystals are precipitated when the sample is cooled, or the sample is not dissolved even when heated.

[4] = Glass transition temperature (DSC); details: (meth)acrylate compound; DSC 10° C./min
Method: [4] Melting Point (Melt Endothermic Maximum Temperature in Differential Scanning Calorimetry (DSC)) and Glass Transition Temperature
5 mg of a sample was precisely weighed, and taken in an aluminum pan, measurement was performed under the following operation conditions with aluminum oxide as a control using a differential scanning calorimeter (DSC 7020 manufactured by SII NanoTechnology Inc.), and the detected melt endothermic maximum temperature was defined as a melting point. For a sample (amorphous material, resin or the like) in which a melt endothermic peak was not detected, the intersection of tangent lines at an inflection point was defined as a glass transition temperature (Tg).
• Temperature elevation rate: 10° C./min (for bisphenol and (meth)acrylate compound) and 20° C./min (for polyarylate resin) • Measurement range: 30 to 250° C. (for bisphenol), 150 to 250° C. (for polyarylate resin) and −30 to 350° C. (for (meth)acrylate compound) • atmosphere: Open, nitrogen: 40 ml/min

[5] = bisphenol, 5, 10, 15 wt % NMP solutions extrapolated to 100% by weight
[6] = (meth)acrylate compound, 5, 10, 15 wt % NMP solutions (Comparative Examples 4 and 5: 1, 3, 5 wt %) extrapolated to 100% by weight

Row | Refractive index [1, 5] | 5% weight loss temperature [2] | Solubility (30 mass % concentration) Monofunctional acrylate OPPEA [3] | Solubility (30 mass % concentration) Solvent EA [3] | Solubility (30 mass % concentration) Monofunctional acrylate POB-A [3] | Solubility (30 mass % concentration) Solvent MEK [3] | Solubility (30 mass % concentration) Solvent PGME [3] | Solubility (30 mass % concentration) Solvent PGMEA [3] | Refractive index [1, 6] | Abbe number ([1]; (meth)acrylate compound) | Tg [4] | Compound
1 | 1.67 | 306 °C |  |  |  |  |  |  |  |  |  | Oc1ccc(C2(c3ccc(O)c(-c4ccccc4)c3)c3ccccc3-c3ccccc32)cc1-c1ccccc1 [Comparative Example 1]
2 |  |  | ∘ | ∘ | ∘ | ∘ | ∘ | ∘ | 1.633 | 19.7 | 32.4 °C | C=CC(=O)Oc1c(Cc2ccccc2)cc(C2(c3cc(Cc4ccccc4)c(OC(=O)C=C)c(-c4ccccc4)c3)c3ccccc3-c3ccccc32)cc1-c1ccccc1 [Example 5]
3 |  |  | ∘ | ∘ | ∘ | ∘ | x | ∘ | 1.591 | 23.1 | 0.0 °C | C=CC(=O)OCCOc1ccc(C2(c3ccc(OCCOC(=O)C=C)c(C)c3)c3ccccc3-c3ccccc32)cc1C [Comparative Example 6]
4 |  |  | x | x | x | x | x | x | 1.644 | 21.4 |  | C=CC(=O)Oc1ccc(C2(c3ccc(OC(=O)C=C)c(-c4ccccc4)c3)c3ccccc3-c3ccccc32)cc1-c1ccccc1 [Comparative Example 5]
5 | 1.67 | 357 °C |  |  |  |  |  |  |  |  |  | Oc1c(Cc2ccccc2)cc(C2(c3cc(Cc4ccccc4)c(O)c(-c4ccccc4)c3)c3ccccc3-c3ccccc32)cc1-c1ccccc1 [Example 1]
6 |  |  | x | ∘ | x | ∘ | x | x | 1.632 | 19.0 |  | C=CC(=O)Oc1ccc2ccccc2c1-c1c(OC(=O)C=C)ccc2ccccc12 [Reference Example 2]
7 | 1.65 | 363 °C |  |  |  |  |  |  |  |  |  | OCCOc1ccc(C2(c3ccc(OCCO)c(-c4ccccc4)c3)c3ccccc3-c3ccccc32)cc1-c1ccccc1 [Reference Example 1]
8 |  |  | x | x | x | x | x | x | 1.606 | 25.5 |  | C=CC(=O)Oc1ccc(C2(c3ccc(OC(=O)C=C)c(C)c3)c3ccccc3-c3ccccc32)cc1C [Comparative Example 4]
